Consider 22 molecules from patent US10155766B2, “Pyrazolopyrimidine antibacterial agents” (priority 2016, dated 2018).

As usually defined, the melting point is the temperature, or range, at which the solid turns liquid. Broadly, the zone of inhibition is the extent of the growth-free halo in a diffusion test.

Series [1] deals with Burkholderia thailandensis (E 264). As to the kind of experiment: microbe, parasite or virus in culture. The following applies: for zone of inhibition at 100 µM / zone of inhibition at 500 µM / zone of inhibition at 1000 µM: Burkholderia thailandensis, read-out: Zone of inhibition (diameter, in millimeter) B. thailandensis; for zone of inhibition at 100 µM: Conc. 0.1 mM; for zone of inhibition at 500 µM: Conc. 0.5 mM; for zone of inhibition at 1000 µM: Conc. 1.0 mM. The series is classed as cell-based.

Series [2] concerns Pseudomonas aeruginosa (ATCC 27853). As to the kind of experiment: microbe, parasite or virus in culture. In kind it is cell-based. Particulars: Pseudomonas aeruginosa, ATCC27853, read-out: Zone of inhibition (diameter, in millimeter) P. aeruginosa; for zone of inhibition at 100 µM: Conc. 0.1 mM; for zone of inhibition at 500 µM: Conc. 0.5 mM; for zone of inhibition at 1000 µM: Conc. 1.0 mM.

The target of the next series is T1, BtIspD (Burkholderia thailandensis, UniProt Q2SWT6).
T1 construct: 6xHis (AVA0421 vector, 3C-cleavable) (N, cleaved yes); made in house; host or cells: E. coli BL21(DE3)R3 Rosetta Oxford
T1 sequence (Q2SWT6 1-236): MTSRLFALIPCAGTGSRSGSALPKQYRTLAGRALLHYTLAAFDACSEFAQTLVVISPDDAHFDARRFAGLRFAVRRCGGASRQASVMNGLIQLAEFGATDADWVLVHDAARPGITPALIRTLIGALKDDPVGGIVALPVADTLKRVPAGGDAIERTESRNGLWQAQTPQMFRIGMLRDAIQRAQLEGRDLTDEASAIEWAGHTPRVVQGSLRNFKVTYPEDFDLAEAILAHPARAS
The series is classed as binding.

In turn, `Cn1ncc2c(NCCc3c[nH]c4ccccc34)ncnc21` returned a melting point of 183 to 185 °C.
For the molecule `CC(C)(C)n1ncc2c(NCCO)ncnc21` [Compound 4], the melting point lay within 75 to 77 °C. Further, in series [1], the zone of inhibition at 100 µM is 0 mm, the zone of inhibition at 500 µM was 8 mm and the zone of inhibition at 1000 µM turned out to be 12 mm. Also, in series [2], the zone of inhibition at 100 µM was determined as 0 mm, the zone of inhibition at 500 µM stood at 12 mm and the zone of inhibition at 1000 µM turned out to be 20 mm.
For the molecule `CCOC(=O)CNc1ncnc2c1cnn2C` [Compound 5], the melting point is 141 to 142 °C. In series [1], the zone of inhibition at 100 µM amounted to 0 mm, the zone of inhibition at 500 µM is 8 mm and the zone of inhibition at 1000 µM is 12 mm. Also, in series [2], the zone of inhibition at 100 µM is 0 mm, the zone of inhibition at 500 µM was determined as 0 mm and the zone of inhibition at 1000 µM turned out to be 13 mm.
Molecule `CC(C)Nc1ncnc2c1cnn2C` [Compound 6] yielded a melting point of 101 to 103 °C. In series [1], the zone of inhibition at 100 µM worked out at 0 mm, the zone of inhibition at 500 µM is 13 mm and the zone of inhibition at 1000 µM came out at 21 mm. In series [2], the zone of inhibition at 100 µM stood at 0 mm, the zone of inhibition at 500 µM came to 0 mm and the zone of inhibition at 1000 µM worked out at 10 mm.
Molecule `Cn1ncc2c(NCc3ccco3)ncnc21` [Compound 7] gave a melting point of 141 to 143 °C. In series [1], the zone of inhibition at 100 µM is 0 mm, the zone of inhibition at 500 µM turned out to be 0 mm and the zone of inhibition at 1000 µM is 20 mm. For the same molecule, in series [2], the zone of inhibition at 100 µM amounted to 0 mm, the zone of inhibition at 500 µM came out at 0 mm and the zone of inhibition at 1000 µM was found to be 0 mm.
`CC(C)(C)n1ncc2c(NCc3ccco3)ncnc21` [Compound 8]: the melting point lay in the range of 101 to 103 °C. In series [1], the zone of inhibition at 100 µM worked out at 0 mm, the zone of inhibition at 500 µM came out at 12 mm and the zone of inhibition at 1000 µM turned out to be 14 mm. For the same molecule, in series [2], the zone of inhibition at 100 µM is 0 mm, the zone of inhibition at 500 µM amounted to 6 mm and the zone of inhibition at 1000 µM amounted to 12 mm.
In the case of `Cn1ncc2c(NCc3ccccc3)ncnc21` [Compound 9], in series [1], the zone of inhibition at 100 µM came out at 0 mm, the zone of inhibition at 500 µM came out at 0 mm and the zone of inhibition at 1000 µM amounted to 12 mm. In series [2], the zone of inhibition at 100 µM is 0 mm, the zone of inhibition at 500 µM came out at 0 mm and the zone of inhibition at 1000 µM stood at 0 mm.
Take `C[C@H](Nc1ncnc2c1cnn2C)c1ccccc1` [Compound 10]: the melting point lay within 201 to 203 °C. In series [1], the zone of inhibition at 100 µM was found to be 0 mm, the zone of inhibition at 500 µM stood at 11 mm and the zone of inhibition at 1000 µM was 19 mm. In addition, in series [2], the zone of inhibition at 100 µM worked out at 0 mm, the zone of inhibition at 500 µM stood at 8 mm and the zone of inhibition at 1000 µM stood at 14 mm.
`CC(C)(C)n1ncc2c(NCc3ccccc3)ncnc21` [Compound 11] returned a melting point of 158 to 160 °C. In addition, in series [1], the zone of inhibition at 100 µM came out at 0 mm, the zone of inhibition at 500 µM is 12 mm and the zone of inhibition at 1000 µM worked out at 18 mm. In series [2], the zone of inhibition at 100 µM came out at 0 mm, the zone of inhibition at 500 µM amounted to 0 mm and the zone of inhibition at 1000 µM was found to be 0 mm.
Molecule `Cn1ncc2c(NCc3ccccc3F)ncnc21` [Compound 13] gave a melting point of 184 to 185 °C. In series [1], the zone of inhibition at 100 µM turned out to be 0 mm, the zone of inhibition at 500 µM came to 8 mm and the zone of inhibition at 1000 µM was found to be 13 mm. Also, in series [2], the zone of inhibition at 100 µM came out at 0 mm, the zone of inhibition at 500 µM was found to be 12 mm and the zone of inhibition at 1000 µM turned out to be 18 mm.
Turning to `CC(C)(C)n1ncc2c(NCc3cccc([N+](=O)[O-])c3)ncnc21` [Compound 15], the melting point lay in the range of 135 to 137 °C. In series [1], the zone of inhibition at 100 µM was determined as 0 mm, the zone of inhibition at 500 µM is 12 mm and the zone of inhibition at 1000 µM amounted to 16 mm. For the same molecule, in series [2], the zone of inhibition at 100 µM worked out at 0 mm, the zone of inhibition at 500 µM amounted to 13 mm and the zone of inhibition at 1000 µM was determined as 17 mm.
Turning to `Cn1ncc2c(NCc3ccc(F)cc3)ncnc21` [Compound 16], in series [1], the zone of inhibition at 100 µM worked out at 0 mm, the zone of inhibition at 500 µM amounted to 9 mm and the zone of inhibition at 1000 µM was found to be 18 mm. Also, in series [2], the zone of inhibition at 100 µM turned out to be 0 mm, the zone of inhibition at 500 µM stood at 12 mm and the zone of inhibition at 1000 µM is 18 mm.
`CC(C)(C)n1ncc2c(NCc3ccc(Cl)c(Cl)c3)ncnc21` [Compound 19] had a melting point of 120 to 123 °C. For the same molecule, in series [1], the zone of inhibition at 100 µM came to 0 mm, the zone of inhibition at 500 µM worked out at 16 mm and the zone of inhibition at 1000 µM turned out to be 20 mm. In addition, in series [2], the zone of inhibition at 100 µM amounted to 0 mm, the zone of inhibition at 500 µM amounted to 12 mm and the zone of inhibition at 1000 µM is 16 mm.
The molecule `Cn1ncc2c(NCCc3ccccc3)ncnc21` [Compound 20] had a melting point of 101 to 103 °C. Moreover, in series [1], the zone of inhibition at 100 µM stood at 0 mm, the zone of inhibition at 500 µM was found to be 9 mm and the zone of inhibition at 1000 µM worked out at 20 mm. Besides, in series [2], the zone of inhibition at 100 µM was determined as 0 mm, the zone of inhibition at 500 µM is 0 mm and the zone of inhibition at 1000 µM amounted to 0 mm.
Consider `Cn1ncc2c(NCCc3ccccc3F)ncnc21` [Compound 21], for which the melting point was 139 to 140 °C. For the same molecule, in series [1], the zone of inhibition at 100 µM amounted to 0 mm, the zone of inhibition at 500 µM was determined as 12 mm and the zone of inhibition at 1000 µM worked out at 16 mm. Further, in series [2], the zone of inhibition at 100 µM turned out to be 0 mm, the zone of inhibition at 500 µM was found to be 8 mm and the zone of inhibition at 1000 µM amounted to 16 mm.
In turn, `Cn1ncc2c(NCCc3cccc(F)c3)ncnc21` [Compound 22] returned a melting point of 109 to 110 °C. Further, in series [1], the zone of inhibition at 100 µM was 0 mm, the zone of inhibition at 500 µM amounted to 11 mm and the zone of inhibition at 1000 µM was found to be 14 mm. In addition, in series [2], the zone of inhibition at 100 µM was determined as 0 mm, the zone of inhibition at 500 µM was found to be 0 mm and the zone of inhibition at 1000 µM worked out at 8 mm.
The molecule `Cn1ncc2c(NCCc3ccc(F)cc3)ncnc21` [Compound 23] gave a melting point of 106 to 107 °C. Besides, in series [1], the zone of inhibition at 100 µM was found to be 0 mm, the zone of inhibition at 500 µM is 12 mm and the zone of inhibition at 1000 µM is 22 mm. In series [2], the zone of inhibition at 100 µM worked out at 0 mm, the zone of inhibition at 500 µM is 9 mm and the zone of inhibition at 1000 µM worked out at 17 mm.
`Cn1ncc2c(NCCc3ccc(Cl)cc3)ncnc21` [Compound 24]: in series [1], the zone of inhibition at 100 µM was 0 mm, the zone of inhibition at 500 µM is 10 mm and the zone of inhibition at 1000 µM came to 13 mm. In addition, in series [2], the zone of inhibition at 100 µM was 0 mm, the zone of inhibition at 500 µM is 0 mm and the zone of inhibition at 1000 µM stood at 10 mm.
In turn, `Cn1ncc2c(NCCc3c(F)cccc3Cl)ncnc21` [Compound 26] had a melting point of 195 to 196 °C. For the same molecule, in series [1], the zone of inhibition at 100 µM was 0 mm, the zone of inhibition at 500 µM is 13 mm and the zone of inhibition at 1000 µM was determined as 21 mm. In addition, in series [2], the zone of inhibition at 100 µM was determined as 0 mm, the zone of inhibition at 500 µM came out at 11 mm and the zone of inhibition at 1000 µM stood at 19 mm. Besides, at BtIspD, the “STD-NMR binding to BtIspD (in words)” value is “strongest binders” and the “change of STD binding to BtIspD upon addition of CDP” value is on record as “large decrease”.
Molecule `CC(C)(C)n1ncc2c(NCCc3c(F)cccc3Cl)ncnc21` [Compound 27] gave a melting point of 140 to 142 °C. In addition, in series [1], the zone of inhibition at 100 µM worked out at 0 mm, the zone of inhibition at 500 µM is 12 mm and the zone of inhibition at 1000 µM worked out at 16 mm. In addition, in series [2], the zone of inhibition at 100 µM is 0 mm, the zone of inhibition at 500 µM is 0 mm and the zone of inhibition at 1000 µM was determined as 0 mm. At BtIspD, the “STD-NMR binding to BtIspD (in words)” value is given as “strongest binders” and the “change of STD binding to BtIspD upon addition of CDP” value is “large decrease”.
`CC(C)(C)n1ncc2c(NCCc3c(Cl)cccc3Cl)ncnc21` [Compound 28] yielded a melting point of 154 to 156 °C. In addition, in series [1], the zone of inhibition at 100 µM turned out to be 0 mm, the zone of inhibition at 500 µM is 11 mm and the zone of inhibition at 1000 µM was found to be 18 mm. Also, in series [2], the zone of inhibition at 100 µM is 0 mm, the zone of inhibition at 500 µM is 0 mm and the zone of inhibition at 1000 µM is 0 mm.
With `NC[C@H]1O[C@H](O[C@H]2[C@H](O)[C@@H](O[C@H]3O[C@H](CO)[C@@H](O)[C@H](N)[C@H]3O)[C@H](N)C[C@@H]2N)[C@H](O)[C@@H](O)[C@@H]1O` [Kanamycin, reference compound], in series [1], the “concentration at which inhibitory activity against B. thailandensis is shown” value is 48.5 µg/mL, the zone of inhibition at 100 µM amounted to 6 mm, the zone of inhibition at 500 µM is 22 mm and the zone of inhibition at 1000 µM turned out to be 30 mm. Further, in series [2], the zone of inhibition at 100 µM was 0 mm, the zone of inhibition at 500 µM came out at 0 mm and the zone of inhibition at 1000 µM amounted to 0 mm.
